In brackets after ≈: the same amount, converted by molar mass.
Legend:
Experiment in all cases: ≥ marks a high value that may be exact or a test limit, other limits are often not marked, values filed in µg/mL are converted to µM
[1] = system: Mycobacterium tuberculosis H37Rv
[2] = system: Acinetobacter baumannii Ab5753
[3] = system: Candida albicans ATCC 90028
[4] = system: Escherichia coli ATCC 25922
Escherichia coli Ec513 = system: Escherichia coli Ec513
[5] = system: Pseudomonas aeruginosa Pa1409
[6] = system: Staphylococcus aureus NCTC 8325
[7] = system: Staphylococcus aureus Sa1390
[8] = system: Bacillus cereus ATCC 11778
[9] = system: Bacillus thuringiensis ATCC 10792
[10] = system: Cryptococcus gattii ATCC 56990
[11] = system: Cryptococcus neoformans ATCC 90112
[12] = system: Enterococcus faecium CCT 5079
[13] = system: Enterococcus hirae ATCC 10541
[14] = system: Escherichia coli ATCC 11775
[15] = system: Escherichia coli CCT 1457
[16] = system: Micrococcus luteus ATCC 4698
[17] = system: Paracoccidioides brasiliensis
[18] = system: Paracoccidioides lutzii ATCC MYA-826
[19] = system: Pseudomonas aeruginosa ATCC 13388
[20] = system: Pseudomonas aeruginosa ATCC 15422
[21] = system: Salmonella enterica subsp. enterica serovar Choleraesuis ATCC 10708
[22] = system: Salmonella enterica subsp. enterica serovar Typhimurium ATCC 14028
[23] = system: Staphylococcus aureus ATCC 25923
[24] = system: Staphylococcus aureus CCT 2580
[25] = system: Staphylococcus aureus CCT 6538
[26] = system: Staphylococcus epidermidis ATCC 12228
[27] = system: Streptococcus mutans AU159
[28] = system: Streptococcus pneumoniae ATCC 11733
Escherichia coli K88 = system: Escherichia coli K88
[29] = system: Escherichia coli O157:H7 CICC 21530
[30] = system: Lacticaseibacillus rhamnosus 1.0911
[31] = system: Lacticaseibacillus rhamnosus 1.0936
[32] = system: Lacticaseibacillus rhamnosus 1.9021
[33] = system: Lacticaseibacillus rhamnosus 8014
[34] = system: Pseudomonas aeruginosa ATCC 27853
[35] = system: Pseudomonas aeruginosa PAO1
[36] = system: Salmonella enterica subsp. enterica serovar Choleraesuis CVCC 503
[37] = system: Salmonella enterica subsp. enterica serovar Pullorum C79-13
[38] = system: Staphylococcus aureus ATCC 29213
[39] = system: Staphylococcus aureus ATCC 43300
[40] = system: Streptococcus agalactiae BNCC 185941
Escherichia coli INV-a = system: Escherichia coli INV-a
[41] = system: Lactococcus lactis MG1363

Structure (SMILES): CC(C)C[C@H](NC(=O)[C@H](C)N)C(=O)N[C@@H](CCCCN)C(=O)N[C@@H](CCCCN)C(=O)N[C@@H](CC(C)C)C(=O)N[C@H](C(=O)N[C@@H](CCCN=C(N)N)C(=O)N[C@@H](Cc1c[nH]c2ccccc12)C(=O)N[C@@H](Cc1c[nH]c2ccccc12)C(=O)N[C@@H](CCCCN)C(=O)N[C@@H](CCCN=C(N)N)C(=O)N[C@@H](Cc1c[nH]c2ccccc12)C(=O)N[C@@H](Cc1c[nH]c2ccccc12)C(=O)N[C@@H](CO)C(=O)N[C@@H](CCCCN)C(=O)O)C(C)C [ALKKLVRWWKRWWSK]
- MIC [1]: 18.1 µM (≈ 37.5 µg/mL)

Structure (SMILES): CC[C@H](C)[C@H](NC(=O)[C@H](CC(C)C)NC(=O)[C@H](C)NC(=O)[C@@H]1CCCN1C(=O)[C@H](Cc1ccccc1)NC(=O)[C@H](C)NC(=O)[C@H](CCCCN)NC(=O)[C@H](CCSC)NC(=O)[C@H](CC(C)C)NC(=O)CNC(=O)CNC(=O)[C@H](CC(C)C)NC(=O)[C@@H](N)Cc1ccccc1)C(=O)N[C@H]1CSSC[C@@H](C(=O)O)NC(=O)[C@H](CCCCN)NC(=O)[C@H](CCCCN)NC(=O)[C@H]([C@@H](C)O)NC(=O)[C@H](C(C)C)NC(=O)[C@H](C)NC1=O [FLGGLMKAFPALICAVTKKC]
- MIC [2]: ≥ 60.6 µM
- MIC [3]: 14 µM (≈ 29.5 µg/mL)
- MIC [4]: 4 µM (≈ 8.44 µg/mL)
- MIC (Escherichia coli Ec513): ≥ 60.6 µM
- MIC [5]: ≥ 60.6 µM
- MIC [6]: 17 µM (≈ 35.9 µg/mL)
- MIC [7]: 30.3 µM (≈ 63.9 µg/mL)

Structure (SMILES): CC[C@H](C)[C@H](N)C(=O)N[C@@H](CC(N)=O)C(=O)N[C@@H](Cc1c[nH]c2ccccc12)C(=O)N[C@@H](CC(C)C)C(=O)N[C@@H](CCCCN)C(=O)N[C@H](C(=O)N[C@@H](C)C(=O)N[C@@H](CCCCN)C(=O)N[C@@H](CCCCN)C(=O)N[C@H](C(=O)N[C@@H](CCCCN)C(=O)NCC(=O)N[C@@H](CCSC)C(=O)N[C@@H](CC(C)C)C(N)=O)C(C)C)[C@@H](C)CC [INWLKIAKKVKGML]
- MIC [8]: 18.9 µM (≈ 31 µg/mL)
- MIC [9]: 18.9 µM (≈ 31 µg/mL)
- MIC [3]: 9.51 µM (≈ 15.6 µg/mL)
- MIC [10]: 9.5 µM (≈ 15.6 µg/mL)
- MIC [11]: 19 µM (≈ 31.2 µg/mL)
- MIC [12]: 0.609 µM (≈ 0.999 µg/mL)
- MIC [13]: 9.74 µM (≈ 16 µg/mL)
- MIC [14]: 9.74 µM (≈ 16 µg/mL)
- MIC [4]: 18.9 µM (≈ 31 µg/mL)
- MIC [15]: 2.44 µM (≈ 4 µg/mL)
- MIC [16]: 1.22 µM (≈ 2 µg/mL)
- MIC [17]: 4.75 µM (≈ 7.8 µg/mL)
- MIC [18]: 9.5 µM (≈ 15.6 µg/mL)
- MIC [19]: 4.87 µM (≈ 8 µg/mL)
- MIC [20]: 9.74 µM (≈ 16 µg/mL)
- MIC [21]: 18.9 µM (≈ 31 µg/mL)
- MIC [22]: 4.87 µM (≈ 8 µg/mL)
- MIC [23]: 2.44 µM (≈ 4 µg/mL)
- MIC [24]: 2.44 µM (≈ 4 µg/mL)
- MIC [25]: 4.87 µM (≈ 8 µg/mL)
- MIC [26]: 1.22 µM (≈ 2 µg/mL)
- MIC [27]: 4.87 µM (≈ 8 µg/mL)
- MIC [28]: 0.609 µM (≈ 0.999 µg/mL)

Structure (SMILES): CC(C)C[C@H](NC(=O)[C@H](CCCCN)NC(=O)[C@H](CCCCN)NC(=O)CN)C(=O)N[C@@H](CC(C)C)C(=O)N[C@@H](Cc1c[nH]c2ccccc12)C(=O)N[C@@H](CC(C)C)C(=O)N[C@@H](CC(C)C)C(=O)N[C@@H](CCCCN)C(=O)N[C@@H](CCCCN)C(=O)NCC(N)=O [GKKLLWLLKKG]
- MIC (Escherichia coli K88): 16 µM (≈ 20.5 µg/mL)
- MIC [29]: ≥ 64 µM
- MIC [30]: ≥ 128 µM
- MIC [31]: ≥ 128 µM
- MIC [32]: ≥ 128 µM
- MIC [33]: ≥ 128 µM
- MIC [34]: > 128 µM
- MIC [35]: 64 µM (≈ 82.1 µg/mL)
- MIC [36]: ≥ 64 µM
- MIC [37]: 16 µM (≈ 20.5 µg/mL)
- MIC [22]: > 128 µM
- MIC [38]: > 128 µM
- MIC [39]: > 128 µM
- MIC [26]: > 128 µM
- MIC [40]: ≥ 128 µM

Structure (SMILES): CC[C@H](C)[C@H](N)C(=O)N[C@@H](CC(N)=O)C(=O)N[C@@H](Cc1c[nH]c2ccccc12)C(=O)N[C@@H](CCCCN)C(=O)NCC(=O)N[C@H](C(=O)N[C@@H](C)C(=O)N[C@@H](C)C(=O)N[C@@H](CCSC)C(=O)N[C@@H](C)C(=O)N[C@@H](CCCCN)C(=O)N[C@@H](CCCCN)C(=O)N[C@@H](CC(C)C)C(=O)N[C@@H](C)C(N)=O)[C@@H](C)CC [INWKGIAAMAKKLA]
- MIC (Escherichia coli INV-a): ≥ 33 µM
- MIC [41]: 21 µM (≈ 31.8 µg/mL)
